The source of these data is patent US20050228016A1, “TETRAHYDROQUINOLINES FOR MODULATING THE EXPRESSION OF EXOGENOUS GENES VIA AN ECDYSONE RECEPTOR COMPLEX” (priority 2002, published 2005).

Data set [1] addresses T1, Bombyx mori EcR (VP16-BmEcR, CVBE) (Bombyx mori, UniProt P49881).
T1 construct: expressed in transfected cells
T1 sequence (P49881 86-606): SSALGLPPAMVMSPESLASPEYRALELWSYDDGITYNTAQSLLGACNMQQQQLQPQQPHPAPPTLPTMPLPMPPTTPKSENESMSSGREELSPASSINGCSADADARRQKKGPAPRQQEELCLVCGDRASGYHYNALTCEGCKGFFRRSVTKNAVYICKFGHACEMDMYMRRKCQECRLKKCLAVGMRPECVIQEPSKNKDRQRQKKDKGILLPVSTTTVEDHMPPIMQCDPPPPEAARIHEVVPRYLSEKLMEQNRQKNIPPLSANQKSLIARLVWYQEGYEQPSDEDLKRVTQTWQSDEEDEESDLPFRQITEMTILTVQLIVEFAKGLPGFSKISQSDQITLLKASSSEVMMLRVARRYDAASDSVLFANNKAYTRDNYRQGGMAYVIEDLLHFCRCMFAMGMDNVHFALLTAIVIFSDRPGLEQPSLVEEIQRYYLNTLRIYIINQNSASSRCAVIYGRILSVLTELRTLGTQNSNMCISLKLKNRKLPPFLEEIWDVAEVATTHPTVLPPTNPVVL
The data set is described as follows: Z3 assay (HEK-293 clone Z3 with CVBE and 6x EcRE LacZ, β-galactosidase reporter). Type of data set: cell-based. Particulars: 48 h, average of two wells. The source says:
Dr. F. Gage provided a population of stably transformed cells containing CVBE and 6× EcRE as described in (Suhr et. al. 1998). Human 293 kidney cells, also referred to as HEK-293 cells, were sequentially infected with retroviral vectors encoding first the switch construct CVBE, and subsequently the reporter construct 6× EcRE Lac Z. The switch construct contained the coding sequence for amino acids 26-546 from Bombyx nori EcR (BE) (Iatrou) inserted in frame and downstream of the VP16 transactivation domain (VBE). A synthetic ATG start codon was placed under the control of cytomegalovirus (CVBE) immediate early promoter and flanked by long terminal repeats (LTR). The reporter-construct contained six copies of the ecdysone response element (EcRE) binding site placed upstream of LacZ and flanked on both sides with LTR sequences (6× EcRE).
Dilution cloning was used to isolate individual clones. Clones were selected using 450 μg/ml G418 and 100 ng/ml puromycin. Individual clones were evaluated based on their response in the presence and absence of test ligands.
Human 293 kidney cells stably transformed with CVBE and 6× EcRE lack were maintained in Minimum Essential Medium (Mediates, 10-010-CV) containing 10%.FBS (Life Technologies, 26140-087),[…] G418 (Mediates, 30-234-CR), and […] (Sigma, P-7255), at 37° C. in an atmosphere containing 5% CO2 and were subculture when they reached 75% confluence.
Z3 cells were seeded into 96-well tissue culture plates at a concentration of 2.5×10^3 cells per well and incubated at 37° C. in 5% CO2 for twenty-four hours. Stock solutions of ligands were prepared in DMSO. Ligand stock solutions were diluted 100.fold in media and 50 μL of this diluted ligand solution (33 μM) was added to cells.
Reporter gene expression was evaluated 48 hours after treatment of cells, β-galactosidase activity was measured using Gal Screen™ bioluminescent reporter gene assay system from Tropix (GSY1000).
Flanking both constructs are long terminal repeats, G418 and puromycin are selectable markers, CMV is the cytomegalovirus promoter, VBE is coding sequence for amino acids 26-546 from Bombyx mori EcR inserted downstream of the VP16 transactivation domain, 6× EcRE is six copies of the ecdysone response element, lacZ encodes for the reporter enzyme β-galactosidase.

The target in the next data set is T2, Gal4DBD/AaEcR (DEF) (Aedes aegypti, UniProt P49880).
T2 construct: The wildtype D, E, and F domains from mosquito Aedes aegypti EcR; expressed in transfected cells; host or cells: 3T3 cells
Put plainly: cell-based. The following applies: 33 μM; 3T3 cells; 48 h; average of two wells. In kind it is cell-based. The protocol:
3T3 cells were trypsinized and plated at 2.5×10^3 cells/well on a 96-well plate. After incubation for 24 h at 37° C. under 5% CO2, cells were transfected with the Gal4DBD/AaEcR (DEF) gene expression cassette and the reporter plasmid, pFRLuc, containing a 5× GAL4 response element and the firefly luciferase gene in serum free media using Superfect (Qiagen). After transfection for 4 h at 37° C., the cells were treated with ligand in serum media. […] Single dose testing was performed at 33 μM.

T2 sequence (P28704 286-520 A311G/G315S/G445S/I449V): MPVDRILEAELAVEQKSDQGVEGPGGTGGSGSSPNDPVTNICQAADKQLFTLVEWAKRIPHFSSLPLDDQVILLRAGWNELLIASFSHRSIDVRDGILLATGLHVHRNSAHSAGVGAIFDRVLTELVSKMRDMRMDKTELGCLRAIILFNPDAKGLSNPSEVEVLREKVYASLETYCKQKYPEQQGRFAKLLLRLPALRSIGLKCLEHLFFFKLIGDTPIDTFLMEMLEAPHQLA
T2 sequence (P49880 405-776): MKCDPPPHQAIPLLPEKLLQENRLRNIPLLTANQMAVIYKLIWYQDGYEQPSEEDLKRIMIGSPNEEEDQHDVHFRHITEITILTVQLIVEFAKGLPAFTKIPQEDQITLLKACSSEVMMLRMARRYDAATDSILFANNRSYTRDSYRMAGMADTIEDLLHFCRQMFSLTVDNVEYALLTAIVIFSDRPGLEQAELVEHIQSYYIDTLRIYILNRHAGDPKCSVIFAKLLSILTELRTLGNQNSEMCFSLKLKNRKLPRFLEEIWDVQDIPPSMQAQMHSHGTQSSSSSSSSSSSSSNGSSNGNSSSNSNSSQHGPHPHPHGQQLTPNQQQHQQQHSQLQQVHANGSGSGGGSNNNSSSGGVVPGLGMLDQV

In the case of `Cc1ccc(C(=O)N2c3ccccc3C(Nc3ccc(F)cc3)CC2C)cc1` (mixture of isomers) [Compound I-40], in data set [1], the “Fold Induction Average, Z3V1 Assay 33 μM” value turned out to be 24 fold. Moreover, the “Fold Induction Average, AA_3T3V1 Assay 33 μM” value on Gal4DBD/AaEcR (DEF) is listed as 81 fold.
On the same counts, the results for `Cc1ccc(C(=O)N2c3ccccc3C(Nc3cccc(Cl)c3)CC2C)cc1` (mixture of isomers) [Compound I-42] are 1 fold and 80 fold.
With `Cc1ccc(C(=O)N2c3ccccc3C(Nc3ccc(Cl)cc3)CC2C)cc1` (mixture of isomers) [Compound I-43], the “Fold Induction Average, Z3V1 Assay 33 μM” value in data set [1] was found to be 3 fold. The “Fold Induction Average, AA_3T3V1 Assay 33 μM” value at Gal4DBD/AaEcR (DEF) was determined as 114 fold.
Regarding `Cc1ccc(NC2CC(C)N(C(=O)c3ccc(C)cc3)c3ccccc32)cc1` (mixture of isomers) [Compound I-45], the “Fold Induction Average, Z3V1 Assay 33 μM” value in data set [1] turned out to be 3 fold. Besides, on Gal4DBD/AaEcR (DEF), the “Fold Induction Average, AA_3T3V1 Assay 33 μM” value is listed as 67 fold.
`COc1ccc(NC2CC(C)N(C(=O)c3ccc(C)cc3)c3ccccc32)cc1` (mixture of isomers) [Compound I-47]: the “Fold Induction Average, Z3V1 Assay 33 μM” value in data set [1] came to 2 fold. The “Fold Induction Average, AA_3T3V1 Assay 33 μM” value on Gal4DBD/AaEcR (DEF) came to 81 fold.
For `CCCCCCC(=O)N1c2ccccc2[C@@H](Nc2ccccc2)C[C@@H]1C` (relative stereo) [Compound I-1], the “Fold Induction Average, Z3V1 Assay 33 μM” value in data set [1] turned out to be 10 fold.
Turning to `C[C@H]1C[C@@H](Nc2ccc(F)cc2)c2cc(F)ccc2N1C(=O)c1ccc(F)c(C(F)(F)F)c1` (relative stereo) [Compound I-4], the “Fold Induction Average, Z3V1 Assay 33 μM” value in data set [1] was 1 fold. Also, the “Fold Induction Average, AA_3T3V1 Assay 33 μM” value on Gal4DBD/AaEcR (DEF) was determined as 4 fold.
`Cc1ccc(C(=O)N2c3ccccc3[C@H](Nc3ccccc3)C[C@@H]2C)cc1F` (relative stereo) [Compound I-19]: the “Fold Induction Average, Z3V1 Assay 33 μM” value in data set [1] is given as 1 fold. On Gal4DBD/AaEcR (DEF), the “Fold Induction Average, AA_3T3V1 Assay 33 μM” value came out at 70 fold.
For `Cc1ccc(N[C@H]2C[C@H](C)N(C(=O)c3ccc(F)c(F)c3)c3ccc(C)cc32)cc1` (relative stereo) [Compound I-21], the “Fold Induction Average, Z3V1 Assay 33 μM” value in data set [1] came to 1 fold. The “Fold Induction Average, AA_3T3V1 Assay 33 μM” value at Gal4DBD/AaEcR (DEF) was found to be 52 fold.
On the same counts, the results for `Cc1ccc(N[C@H]2C[C@H](C)N(C(=O)c3ccc(C(F)(F)F)c(F)c3)c3ccc(C)cc32)cc1` (relative stereo) [Compound I-23] are 1 fold and 87 fold.
Taken in the same sequence, the figures for `C[C@H]1C[C@@H](Nc2ccc(F)cc2)c2cc(F)ccc2N1C(=O)c1ccc(F)c(F)c1` (relative stereo) [Compound I-24] were 7 fold and 132 fold.
Taken in the same sequence, the figures for `C[C@H]1C[C@@H](Nc2ccc(F)cc2)c2cc(F)ccc2N1C(=O)c1ccc(C(F)(F)F)c(F)c1` (relative stereo) [Compound I-25] were 1 fold and 147 fold.
Consider `CCc1ccc(C(=O)N2c3ccc(C)cc3[C@@H](Nc3ccc(C)cc3)C[C@@H]2C)cc1` (relative stereo) [Compound I-64], for which, in data set [1], the “Fold Induction Average, Z3V1 Assay 33 μM” value was 1 fold. In addition, the “Fold Induction Average, AA_3T3V1 Assay 33 μM” value on Gal4DBD/AaEcR (DEF) was determined as 681 fold.
For `C[C@H]1C[C@H](Nc2ccc(F)cc2)c2cc(F)ccc2N1C(=O)c1ccc(Cl)cc1` (relative stereo) [Compound I-65], the “Fold Induction Average, Z3V1 Assay 33 μM” value in data set [1] stood at 82 fold. Besides, at Gal4DBD/AaEcR (DEF), the “Fold Induction Average, AA_3T3V1 Assay 33 μM” value stood at 345 fold.
Taken in the same sequence, the figures for `CCc1ccc(C(=O)N2c3ccc(F)cc3[C@@H](Nc3ccc(F)cc3)C[C@@H]2C)cc1` (relative stereo) [Compound I-66] were 206 fold and 813 fold.
With `C[C@H]1C[C@H](Nc2ccccc2)c2ccccc2N1C(=O)c1ccccc1` (relative stereo) [Compound I-67], the “Fold Induction Average, Z3V1 Assay 33 μM” value in data set [1] is 1 fold. The “Fold Induction Average, AA_3T3V1 Assay 33 μM” value on Gal4DBD/AaEcR (DEF) came out at 20 fold.
For `C[C@H]1C[C@H](Nc2ccccc2)c2ccccc2N1C(=O)c1cccc(F)c1` (relative stereo) [Compound I-68], the “Fold Induction Average, Z3V1 Assay 33 μM” value in data set [1] came to 8 fold. Moreover, the “Fold Induction Average, AA_3T3V1 Assay 33 μM” value on Gal4DBD/AaEcR (DEF) is recorded as 282 fold.
On to `C[C@H]1C[C@H](Nc2ccccc2)c2ccccc2N1C(=O)c1ccccc1C(F)(F)F` (relative stereo) [Compound I-69], for which the “Fold Induction Average, Z3V1 Assay 33 μM” value in data set [1] worked out at 1 fold. Also, the “Fold Induction Average, AA_3T3V1 Assay 33 μM” value on Gal4DBD/AaEcR (DEF) was determined as 2 fold.
On the same counts, the results for `C[C@H]1C[C@H](Nc2ccccc2)c2ccccc2N1C(=O)c1cccc(C(F)(F)F)c1` (relative stereo) [Compound I-70] are 26 fold and 376 fold.
Take `CCCC(=O)N1c2ccccc2C(N(C(=O)c2cccc(OC)c2)c2ccccc2)CC1C` (centres unmarked) [Compound I-160]: in data set [1], the “Fold Induction Average, Z3V1 Assay 33 μM” value is listed as 1 fold.
On to `CC1CC(Nc2ccccc2)c2ccccc2N1C(=O)Cc1cccc2ccccc12` (centres unmarked) [Compound I-169], for which the “Fold Induction Average, Z3V1 Assay 33 μM” value in data set [1] was 1 fold.
For `CC1CC(Nc2ccccc2)c2ccccc2N1C(=O)c1cccc(C(F)(F)F)c1` (centres unmarked) [Compound I-201], the “Fold Induction Average, AA_3T3V1 Assay 33 μM” value at Gal4DBD/AaEcR (DEF) is reported as 71 fold.
On the same count and under the same terms, then `Cc1ccc(NC2CC(C)N(C(=O)c3cccc(F)c3)c3ccc(C)cc32)cc1` (centres unmarked) [Compound I-203], with 3 fold.
Same read-out and setting: the figure for `COc1cccc(C(=O)N2c3ccc(C)cc3C(Nc3ccc(C)cc3)CC2C)c1` (centres unmarked) [Compound I-204] is 1 fold.
Same read-out and setting: then `Cc1cccc(C(=O)N2c3ccc(F)cc3C(Nc3ccc(F)cc3)CC2C)c1` (centres unmarked) [Compound I-206], with 142 fold; and `CC1CC(Nc2ccc(F)cc2)c2cc(F)ccc2N1C(=O)c1cccc(F)c1` (centres unmarked) [Compound I-207], with 108 fold.
As to `COc1cccc(C(=O)N2c3ccc(F)cc3C(Nc3ccc(F)cc3)CC2C)c1` (centres unmarked) [Compound I-208], the “Fold Induction Average, AA_3T3V1 Assay 33 μM” value on Gal4DBD/AaEcR (DEF) is given as 989 fold.
For `CC1CC(Nc2ccc(F)cc2)c2cc(F)ccc2N1C(=O)c1cccc(C(F)(F)F)c1` (centres unmarked) [Compound I-209], on Gal4DBD/AaEcR (DEF), the “Fold Induction Average, AA_3T3V1 Assay 33 μM” value came to 384 fold.
Same read-out and setting: the figure for `CC1CC(Nc2ccccc2)c2ccccc2N1C(=O)Nc1ccccc1` (centres unmarked) [Compound I-211] is 638 fold; for `CC1CC(Nc2ccccc2)c2ccccc2N1C(=O)Nc1ccc(Cl)cc1` (centres unmarked) [Compound I-212] it is 367 fold.
With `CC1CC(Nc2ccccc2)c2ccccc2N1C(=O)Nc1cccc(Cl)c1` (centres unmarked) [Compound I-213], on Gal4DBD/AaEcR (DEF), the “Fold Induction Average, AA_3T3V1 Assay 33 μM” value is listed as 527 fold.
The same measure, in the same setting: the figure for `Cc1cccc(NC(=O)N2c3ccccc3C(Nc3ccccc3)CC2C)c1` (centres unmarked) [Compound I-215] is 1052 fold; for `Cc1ccc(NC2CC(C)N(C(=O)Nc3ccccc3)c3ccc(C)cc32)cc1` (centres unmarked) [Compound I-216] it is 2 fold.
Consider `Cc1ccc(NC2CC(C)N(C(=O)Nc3ccc(Cl)cc3)c3ccc(C)cc32)cc1` (centres unmarked) [Compound I-217], for which, on Gal4DBD/AaEcR (DEF), the “Fold Induction Average, AA_3T3V1 Assay 33 μM” value worked out at 8 fold.
The same measure, in the same setting: the figure for “trans-2-methyl-6-fluoro-1-(3-fluoro-4-methylbenzoyl)-4-(4-methylphenylamino), 4-(3-fluoro-4-methylbenzoyl)-1,2,3,4-tetrahydroquinoline [Compound I-196]” is 1 fold.
